Literature values in patent US20040266797A1, “Use of potent,selective and non toxic c-kit inhibitors for treating tumor angiogensis” (priority 2001, published 2004).

Test system: tumor growth
Conditions: inhibiting mast cell degranulation

Question: Which tumor growth does the source give for `O=C([O-])c1cc(=O)c2c(OCC(O)COc3cccc4oc(C(=O)[O-])cc(=O)c34)cccc2o1.[Na+].[Na+]` [disodium cromoglycate] here?
Answer: significantly depresse tumor growth
